The record followed here is patent US10246456B2, “IRAK4 inhibiting agents” (BIOGEN MA INC., priority 2014, dated 2019).

Assay [1] concerns IL-6 in A549 cells. The experiment in a line: Cell-based IL-6 ELISA assay in IL-1beta stimulated A549 cells. The following applies: 2 ng/ml human IL-1beta overnight. The essentials: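 A549 cells (2.5×10^4/well, DMEM/10% FBS) pretreated 30 min at 37 C with compound, 10-point serial dilution from 10 uM, then stimulated overnight with 2 ng/ml human IL-1beta. Secreted IL-6 in supernatant quantified by human IL-6 ELISA.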

For assay [2], the target named is IRAK4 (Homo sapiens (Human), UniProt Q9NWZ3). The experiment in a line: IRAK-4 AlphaScreen biochemical kinase assay. The following applies: 1 nM IRAK4, 1 mM ATP, 3.5 h at RT. The method, boiled down:
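AlphaScreen read-out: streptavidin beads bind the biotinylated peptide and protein A beads bind the anti-phosphothreonine antibody, so energy transfer reports phosphorylation of the peptide. The kinase is human IRAK-4.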

Chain of IRAK4 (Q9NWZ3 whole entry, species assumed): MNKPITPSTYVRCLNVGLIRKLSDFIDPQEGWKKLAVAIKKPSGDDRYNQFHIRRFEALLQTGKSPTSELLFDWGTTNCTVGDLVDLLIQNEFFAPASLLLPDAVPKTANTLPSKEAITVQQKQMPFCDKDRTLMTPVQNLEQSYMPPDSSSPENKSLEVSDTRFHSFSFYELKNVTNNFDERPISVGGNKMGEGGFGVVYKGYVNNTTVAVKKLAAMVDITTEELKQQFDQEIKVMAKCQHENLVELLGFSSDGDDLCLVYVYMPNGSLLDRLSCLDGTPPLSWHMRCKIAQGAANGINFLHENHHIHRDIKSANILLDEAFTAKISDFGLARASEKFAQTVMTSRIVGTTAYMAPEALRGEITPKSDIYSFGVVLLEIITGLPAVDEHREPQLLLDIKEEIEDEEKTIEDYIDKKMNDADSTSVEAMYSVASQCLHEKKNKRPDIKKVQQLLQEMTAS

`CCC[C@H](N)c1cccc(-c2ccc3cnn(-c4cccc(C=O)n4)c3c2)n1` [Example 450, (S)-6-(6-(6-(1-aminobutyl)pyridin-2-yl)-1H-indazol-1-yl)picolinaldehyde] gave a concentration for a half-maximal effect (EC50) in assay [1] of 1000 to 10000 nM. The compound further showed an IC50 in assay [2] of less than 100 nM.
`CCC[C@H](N)c1cccc(-c2ccc3cnn(-c4cccc([C@@H](O)C(F)(F)F)n4)c3c2)n1` [Example 451, (R)-1-(6-(6-(6-((S)-1-aminobutyl)pyridin-2-yl)-1H-indazol-1-yl)pyridin-2-yl)-2,2,2-trifluoroethanol] had an EC50 in assay [1] of no more than 1000 nM. This compound also gave a half-inhibitory concentration (IC50) in assay [2] of less than 100 nM.
For `CCC[C@H](N)c1cccc(-c2ccc3cnn(-c4cccc([C@H](O)C(F)(F)F)n4)c3c2)n1` [Example 452, (S)-1-(6-(6-(6-((S)-1-aminobutyl)pyridin-2-yl)-1H-indazol-1-yl)pyridin-2-yl)-2,2,2-trifluoroethanol] the same measures were 1000 to 10000 nM and less than 100 nM.
Compound `CC[C@@H](F)[C@H](N)c1cccc(-c2cc(OCCOC)c3cnn(-c4cccc(CO)n4)c3c2)n1` [Example 453, (6-(6-(6-((1R,2R)-1-amino-2-fluorobutyl)pyridin-2-yl)-4-(2-methoxyethoxy)-1H-indazol-1-yl)pyridin-2-yl)methanol] showed an EC50 in assay [1] of no more than 1000 nM. Further, the IC50 in assay [2] was less than 100 nM.
In assay [1], `CC[C@H](F)[C@H](N)c1cccc(-c2cc(OCCOC)c3cnn(-c4cccc(CO)n4)c3c2)n1` [Example 454, (6-(6-(6-((1R,2S)-1-amino-2-fluorobutyl)pyridin-2-yl)-4-(2-methoxyethoxy)-1H-indazol-1-yl)pyridin-2-yl)methanol] displayed a half-maximal effective concentration (EC50) of no more than 1000 nM. Besides, the IC50 in assay [2] is less than 100 nM.
`CCC[C@H](N)c1cccc(-c2cc(OCCCOC)c3cnn(-c4cccc(CO)n4)c3c2)n1` [Example 456, (S)-(6-(6-(6-(1-aminobutyl)pyridin-2-yl)-4-(3-methoxypropoxy)-1H-indazol-1-yl)pyridin-2-yl)methanol] returned an EC50 in assay [1] of no more than 1000 nM. This compound also came in with an IC50 in assay [2] of less than 100 nM.
`CC[C@H](N)c1cccc(-c2cc(OCCCOC)c3cnn(-c4cccc(CO)n4)c3c2)n1` [Example 457, (S)-(6-(6-(6-(1-aminopropyl)pyridin-2-yl)-4-(3-methoxypropoxy)-1H-indazol-1-yl)pyridin-2-yl)methanol] showed an EC50 in assay [1] of no more than 1000 nM. In assay [2], the concentration for half-maximal inhibition (IC50) is less than 100 nM.
For `COCCCOc1cc(-c2cccc([C@H](C)N)n2)cc2c1cnn2-c1cccc(CO)n1` [Example 458, (S)-(6-(6-(6-(1-aminoethyl)pyridin-2-yl)-4-(3-methoxypropoxy)-1H-indazol-1-yl)pyridin-2-yl)methanol] the same measures were no more than 1000 nM and less than 100 nM.
Take `CCC[C@H](N)c1cccc(-c2cc(OC)c3cnn(-c4cccc(CO)n4)c3c2)n1` [Example 463, (S)-(6-(6-(6-(1-aminobutyl)pyridin-2-yl)-4-methoxy-1H-indazol-1-yl)pyridin-2-yl)methanol]: the EC50 in assay [1] was no more than 1000 nM. Further, the IC50 in assay [2] is less than 100 nM.
In assay [1], `CCC[C@H](N)c1cccc(-c2cc(OCC)c3cnn(-c4cccc(CO)n4)c3c2)n1` [Example 464, (S)-(6-(6-(6-(1-aminobutyl)pyridin-2-yl)-4-ethoxy-1H-indazol-1-yl)pyridin-2-yl)methanol] came in with an EC50 of no more than 1000 nM. In addition, the IC50 in assay [2] was less than 100 nM.
The matching figures for `CC[C@H](N)c1cccc(-c2cc(F)c3cnn(-c4cccc(CO)n4)c3c2)n1` [Example 473, (S)-(6-(6-(6-(1-aminopropyl)pyridin-2-yl)-4-fluoro-1H-indazol-1-yl)pyridin-2-yl)methanol]: no more than 1000 nM and less than 100 nM.
For `CCC[C@H](N)c1cccc(-c2cc(F)c3cnn(-c4cccc(CO)n4)c3c2)n1` [Example 474, (6-{6-[6-((S)-1-Amino-butyl)-pyridin-2-yl]-4-fluoro-indazol-1-yl}-pyridin-2-yl)-methanol] the same measures were no more than 1000 nM and less than 100 nM.
The matching figures for `CCC[C@H](N)c1cccc(-c2cc(OCCOC)c3cnn(-c4cccc(CO)n4)c3c2)n1` [Example 476, (S)-(6-(6-(6-(1-aminobutyl)pyridin-2-yl)-4-(2-methoxyethoxy)-1H-indazol-1-yl)pyridin-2-yl)methanol]: no more than 1000 nM and less than 100 nM.
Compound `CCC[C@H](N)c1cccc(-c2cc(OC(C)C)c3cnn(-c4cccc(CO)n4)c3c2)n1` [Example 483, (6-{6-[6-((S)-1-Amino-butyl)-pyridin-2-yl]-4-isopropoxy-indazol-1-yl}-pyridin-2-yl)-methanol] yielded an EC50 in assay [1] of no more than 1000 nM. Also, the IC50 in assay [2] was less than 100 nM.
The matching figures for `CC[C@H](N)c1cccc(-c2cc(NC)c3cnn(-c4cccc(CO)n4)c3c2)n1` [Example 485, (S)-(6-(6-(6-(1-aminopropyl)pyridin-2-yl)-4-(methylamino)-1H-indazol-1-yl)pyridin-2-yl)methanol]: no more than 1000 nM and less than 100 nM.
For `CCC[C@H](N)c1cccc(-c2ccc3cnn(-c4nccc(C(F)F)n4)c3c2)n1` [Example 486, (S)-1-(6-(1-(4-(difluoromethyl)pyrimidin-2-yl)-1H-indazol-6-yl)pyridin-2-yl)butan-1-amine], the concentration for a half-maximal effect (EC50) in assay [1] was no more than 1000 nM. This compound also had an IC50 in assay [2] of less than 100 nM.
For `CCC[C@H](N)c1cccc(-c2cc(CF)c3cnn(-c4cccc(CO)n4)c3c2)n1` [Example 487, (S)-(6-(6-(6-(l-aminobutyl)pyridin-2-yl)-4-(fluoromethyl)-1H-indazol-1-yl)pyridin-2-yl)methanol] the same measures were no more than 1000 nM and less than 100 nM.
The matching figures for `CCC[C@H](N)c1cccc(-c2cc(C3=CCN(C(C)=O)CC3)c3cnn(-c4cccc(CO)n4)c3c2)n1` [Example 488, (S)-1-(4-(6-(6-(1-aminobutyl)pyridin-2-yl)-1-(6-(hydroxymethyl)pyridin-2-yl)-1H-indazol-4-yl)-5,6-dihydropyridin-1(2H)-yl)ethanone]: no more than 1000 nM and less than 100 nM.
As for `CCC[C@H](N)c1cccc(-c2cc(OC)c3cnn(-c4cncc(CO)n4)c3c2)n1` [Example 489, (S)-(6-(6-(6-(1-aminobutyl)pyridin-2-yl)-4-methoxy-1H-indazol-1-yl)pyrazin-2-yl)methanol], the concentration giving a half-maximal response (EC50) in assay [1] is no more than 1000 nM. This compound also showed an IC50 in assay [2] of less than 100 nM.
The matching figures for `CCC[C@H](N)c1cccc(-c2cc(Cl)c3cnn(-c4cccc(CO)n4)c3c2)n1` [Example 490, (S)-(6-(6-(6-(1-aminobutyl)pyridin-2-yl)-4-chloro-1H-indazol-1-yl)pyridin-2-yl)methanol]: no more than 1000 nM and less than 100 nM.
For `CCC[C@H](N)c1cccc(-c2cc(C(F)F)c3cnn(-c4cccc(CO)n4)c3c2)n1` [Example 491, (S)-(6-(6-(6-(1-aminobutyl)pyridin-2-yl)-4-(difluoromethyl)-1H-indazol-1-yl)pyridin-2-yl)methanol] the same measures were no more than 1000 nM and less than 100 nM.
The compound `CCC[C@H](N)c1cccc(-c2cc(CO)c3cnn(-c4cccc(CO)n4)c3c2)n1` [Example 492, (S)-(6-(6-(1-aminobutyl)pyridin-2-yl)-1-(6-(hydroxymethyl)pyridin-2-yl)-1H-indazol-4-yl)methanol] yielded an EC50 in assay [1] of no more than 1000 nM. The same compound showed a half-inhibitory concentration (IC50) in assay [2] of less than 100 nM.
